Test results from article PMC3353181, “A gallotannin-rich fraction from Caesalpinia spinosa (Molina) Kuntze displays cytotoxic activity and raises sensitivity to doxorubicin in a leukemia cell line” (BMC Complementary and Alternative Medicine, 2012).

Assays:
[1] = tested on: HL-60 cell line; parameters: method as in PMID 10554885; details: cited from earlier work
[2] = tested on: gingival fibroblasts; assay: MTT cytotoxicity assay, gingival fibroblasts; format: cell-based; details: Homo sapiens, Fibroblast, normal gingival fibroblasts, concentration ± SE
Excerpt: (§1) The cell lines used as cancer cells were K562, a human erythroleukemia and MCF7, a human breast adenocarcinoma, from the American Type Culture Collection (ATCC); and the cell lines used as normal cells were human peripheral blood mononuclear cells (PBMC) and human fibroblasts obtained from normal healthy donors after informed consent was given. This project was approved by the ethics committee (founded in 2002) of the Science Faculty at a meeting on August 21, 2007. The culture conditions under which the cell lines were maintained have already been reported.
(§2) The cytotoxic effects of the fractions and conventional chemotherapeutic drugs (doxorubicin, etoposide, vincristine and taxol) were evaluated using normal and tumor cells by means of trypan blue and the methylthiazol tetrazolium (MTT) assay, as previously reported. The P2Et fraction was dissolve in ethanol and the corresponding vehicle was used as a negative control.
(§3) Figure 2 Induction of morphological changes and cytotoxicity in K562 cells by C. spinosa fractions without affecting normal human cells. […] Morphological changes were evaluated by direct observation using a light microscope at a magnification of 40X (B: 1. Ethanol; 2. S2Et; 3. P2Et; and 4. Etoposide). […]
(§4) Additionally, the cytotoxic activity of C. spinosa fractions was evaluated using gingival fibroblasts from the oral mucosa or normal human mononuclear cells. […]

[3] = tested on: PBMC; assay: MTT cytotoxicity assay, PBMC; format: cell-based; details: Homo sapiens, normal PBMC, concentration ± SE
Excerpt: as §1, §2, §3, §4

[4] = tested on: melanoma cells (RPMI-7951); parameters: method as in PMID 1431932; details: cited from earlier work
[5] = tested on: K562; assay: P2Et adjuvant activity (MTT), K562; format: cell-based, human; details: sub-optimal tested concentrations
Protocol: P2Et fraction adjuvant activity was assessed using K562 and MCF7 cells in combination with the well-known cancer treatment drugs doxorubicin, vincristine, taxol and camptothecin. Cell viability was evaluated by means of the MTT assay. […] Results are expressed as cell viability percentage relative to the control (100 × Treatment OD/Negative control OD).
K562 (A) or MCF7 (B) cells were treated with the P2Et fraction or ethanol (negative control) for 6 h, washed and treated with doxorubicin (Dx), vincristine (Vt), camptothecin (Ct) or taxol (Tx) at the concentrations shown over a 48 h period. Cell cytotoxicity was estimated using the MTT assay. Data represent three independent experiments. *** (p < 0.001).

Structure (SMILES): O=C(OC[C@H]1O[C@@H](OC(=O)c2cc(O)c(O)c(O)c2)[C@H](OC(=O)c2cc(O)c(O)c(O)c2)[C@@H](OC(=O)c2cc(O)c(O)c(O)c2)[C@@H]1OC(=O)c1cc(O)c(O)c(O)c1)c1cc(O)c(O)c(O)c1 [PGG, 1,2,3,4,6-penta-O-galloyl-β-D-glucose]
- Induction of apoptosis [1]: able to induce caspase-mediated apoptosis

Structure (SMILES): COc1cc([C@@H]2c3cc4c(cc3[C@@H](O[C@@H]3O[C@@H]5CO[C@@H](C)O[C@H]5[C@H](O)[C@H]3O)[C@H]3COC(=O)[C@H]23)OCO4)cc(OC)c1O [Etoposide]
- IC50 [2]: > 200 µg/mL
- IC50 [3]: > 200 µg/mL

Structure (SMILES): O=C(O[C@H]1[C@H](O)C[C@](O)(C(=O)O)C[C@H]1OC(=O)c1cc(O)c(O)c(O)c1)c1cc(O)c(O)c(O)c1 [4,5-di-O-galloylquinic acid]
- Cytotoxicity against melanoma cells [4]: moderate cytotoxicity

Structure (SMILES): COc1cccc2c1C(=O)c1c(O)c3c(c(O)c1C2=O)C[C@@](O)(C(=O)CO)C[C@@H]3O[C@H]1C[C@H](N)[C@H](O)[C@H](C)O1 [Doxorubicin]
- Effect on cell viability, used separately [5]: slight effect
